Laboratory results from publication PMC7901654, “Bioisosteric Discovery of NPA101.3, a Second-Generation RET/VEGFR2 Inhibitor Optimized for Single-Agent Polypharmacology” (Journal of Medicinal Chemistry, 2020).

Experiments:
Assay in all cases: KinomeScan panel screen
Type in all cases: binding
[1] = biological target: T1, AURKA (Homo sapiens, UniProt O14965); settings: 100 nM, read-out: Percent Control
T1 construct: purchased DiscoveRx KINOMEscan (TRKA and CSF1R IC50 enzymes from Invitrogen)

[2] = biological target: T2, AURKB (Homo sapiens, UniProt Q96GD4); settings: 100 nM, read-out: Percent Control
T2 construct: purchased DiscoveRx KINOMEscan (TRKA and CSF1R IC50 enzymes from Invitrogen)

[3] = biological target: T3, AXL (Homo sapiens, UniProt P30530); settings: 100 nM, read-out: Percent Control
T3 construct: purchased DiscoveRx KINOMEscan (TRKA and CSF1R IC50 enzymes from Invitrogen)

[4] = biological target: T4, BMX (Homo sapiens, UniProt P51813); settings: 100 nM, read-out: Percent Control
T4 construct: purchased DiscoveRx KINOMEscan (TRKA and CSF1R IC50 enzymes from Invitrogen)

[5] = biological target: T5, BRSK2 (Homo sapiens, UniProt Q8IWQ3); settings: BRSK2, 100 nM; read-out: Percent Control
T5 construct: purchased DiscoveRx KINOMEscan (TRKA and CSF1R IC50 enzymes from Invitrogen)
T5 sequence (Q8IWQ3 whole entry): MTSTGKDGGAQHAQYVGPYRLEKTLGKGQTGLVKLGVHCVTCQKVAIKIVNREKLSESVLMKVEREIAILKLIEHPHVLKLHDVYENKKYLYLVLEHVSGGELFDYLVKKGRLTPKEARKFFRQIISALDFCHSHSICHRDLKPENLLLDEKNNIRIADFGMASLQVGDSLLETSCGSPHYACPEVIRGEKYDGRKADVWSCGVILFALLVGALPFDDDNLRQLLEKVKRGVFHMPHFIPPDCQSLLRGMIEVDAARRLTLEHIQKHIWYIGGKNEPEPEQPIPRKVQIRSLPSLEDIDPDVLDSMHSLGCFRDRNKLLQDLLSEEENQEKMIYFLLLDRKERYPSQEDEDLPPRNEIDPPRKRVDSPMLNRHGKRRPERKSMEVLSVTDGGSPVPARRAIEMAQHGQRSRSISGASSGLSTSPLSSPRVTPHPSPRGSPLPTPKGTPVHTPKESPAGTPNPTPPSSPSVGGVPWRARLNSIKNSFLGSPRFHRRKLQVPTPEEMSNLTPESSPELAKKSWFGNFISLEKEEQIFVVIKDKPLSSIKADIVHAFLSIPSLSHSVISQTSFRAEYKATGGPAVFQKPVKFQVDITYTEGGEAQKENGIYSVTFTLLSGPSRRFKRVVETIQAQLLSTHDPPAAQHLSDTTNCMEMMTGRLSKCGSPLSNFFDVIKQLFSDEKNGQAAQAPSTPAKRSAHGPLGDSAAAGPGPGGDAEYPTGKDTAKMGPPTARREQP

[6] = biological target: T6, CAMK2A (Homo sapiens, UniProt Q9UQM7); settings: 100 nM, read-out: Percent Control
T6 construct: purchased DiscoveRx KINOMEscan (TRKA and CSF1R IC50 enzymes from Invitrogen)

[7] = biological target: T7, CDK9 (Homo sapiens, UniProt P50750); settings: CDK9, 100 nM; read-out: Percent Control
T7 construct: purchased DiscoveRx KINOMEscan (TRKA and CSF1R IC50 enzymes from Invitrogen)
T7 sequence (P50750 whole entry): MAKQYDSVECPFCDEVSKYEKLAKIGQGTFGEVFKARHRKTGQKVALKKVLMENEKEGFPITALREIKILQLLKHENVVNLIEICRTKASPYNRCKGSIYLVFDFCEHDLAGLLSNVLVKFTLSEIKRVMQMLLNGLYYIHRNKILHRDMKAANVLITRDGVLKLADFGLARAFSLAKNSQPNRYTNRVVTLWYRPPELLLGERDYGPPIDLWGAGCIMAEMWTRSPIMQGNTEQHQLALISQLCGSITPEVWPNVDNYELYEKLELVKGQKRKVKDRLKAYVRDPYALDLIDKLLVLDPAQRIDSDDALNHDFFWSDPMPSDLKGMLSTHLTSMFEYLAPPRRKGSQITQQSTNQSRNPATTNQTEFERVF

[8] = biological target: T8, CHEK2 (Homo sapiens, UniProt O96017); settings: CHEK2, 100 nM; read-out: Percent Control
T8 construct: purchased DiscoveRx KINOMEscan (TRKA and CSF1R IC50 enzymes from Invitrogen)

[9] = biological target: T9, DMPK (Homo sapiens, UniProt Q09013); settings: 100 nM, read-out: Percent Control
T9 construct: purchased DiscoveRx KINOMEscan (TRKA and CSF1R IC50 enzymes from Invitrogen)

[10] = biological target: T10, DRAK1 (Homo sapiens, UniProt Q9UEE5); settings: DRAK1, 100 nM; read-out: Percent Control
T10 construct: purchased DiscoveRx KINOMEscan (TRKA and CSF1R IC50 enzymes from Invitrogen)

[11] = biological target: T11, IKK-beta (Homo sapiens, UniProt O14920); settings: 100 nM, read-out: Percent Control
T11 construct: purchased DiscoveRx KINOMEscan (TRKA and CSF1R IC50 enzymes from Invitrogen)

[12] = biological target: T12, INSR (Homo sapiens, UniProt P06213); settings: 100 nM, read-out: Percent Control
T12 construct: purchased DiscoveRx KINOMEscan (TRKA and CSF1R IC50 enzymes from Invitrogen)

[13] = biological target: T13, IRAK4 (Homo sapiens, UniProt Q9NWZ3); settings: IRAK4, 100 nM; read-out: Percent Control
T13 construct: purchased DiscoveRx KINOMEscan (TRKA and CSF1R IC50 enzymes from Invitrogen)

[14] = biological target: T14, JNK2 (Homo sapiens, UniProt P45984); settings: JNK2, 100 nM; read-out: Percent Control
T14 construct: purchased DiscoveRx KINOMEscan (TRKA and CSF1R IC50 enzymes from Invitrogen)
T14 sequence (P45984 whole entry): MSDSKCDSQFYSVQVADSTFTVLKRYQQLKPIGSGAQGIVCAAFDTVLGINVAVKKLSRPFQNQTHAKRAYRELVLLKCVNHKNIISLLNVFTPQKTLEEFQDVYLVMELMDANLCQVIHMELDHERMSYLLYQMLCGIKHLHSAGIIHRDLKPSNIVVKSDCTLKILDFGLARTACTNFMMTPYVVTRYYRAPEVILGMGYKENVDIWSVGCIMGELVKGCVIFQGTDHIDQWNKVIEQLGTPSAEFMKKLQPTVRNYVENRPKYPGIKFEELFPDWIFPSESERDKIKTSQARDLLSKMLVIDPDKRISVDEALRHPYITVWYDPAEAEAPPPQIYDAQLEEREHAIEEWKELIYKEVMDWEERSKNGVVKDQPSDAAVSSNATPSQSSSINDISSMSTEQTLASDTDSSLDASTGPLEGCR

[15] = biological target: T15, LKB1 (Homo sapiens, UniProt Q15831); settings: LKB1, 100 nM; read-out: Percent Control
T15 construct: purchased DiscoveRx KINOMEscan (TRKA and CSF1R IC50 enzymes from Invitrogen)

[16] = biological target: T16, MLK3 (Homo sapiens, UniProt Q16584); settings: MLK3, 100 nM; read-out: Percent Control
T16 construct: purchased DiscoveRx KINOMEscan (TRKA and CSF1R IC50 enzymes from Invitrogen)

[17] = biological target: T17, MUSK (Homo sapiens, UniProt O15146); settings: 100 nM, read-out: Percent Control
T17 construct: purchased DiscoveRx KINOMEscan (TRKA and CSF1R IC50 enzymes from Invitrogen)

[18] = biological target: T18, MYO3A (Homo sapiens, UniProt Q8NEV4); settings: 100 nM, read-out: Percent Control
T18 construct: purchased DiscoveRx KINOMEscan (TRKA and CSF1R IC50 enzymes from Invitrogen)
T18 sequence (Q8NEV4 whole entry): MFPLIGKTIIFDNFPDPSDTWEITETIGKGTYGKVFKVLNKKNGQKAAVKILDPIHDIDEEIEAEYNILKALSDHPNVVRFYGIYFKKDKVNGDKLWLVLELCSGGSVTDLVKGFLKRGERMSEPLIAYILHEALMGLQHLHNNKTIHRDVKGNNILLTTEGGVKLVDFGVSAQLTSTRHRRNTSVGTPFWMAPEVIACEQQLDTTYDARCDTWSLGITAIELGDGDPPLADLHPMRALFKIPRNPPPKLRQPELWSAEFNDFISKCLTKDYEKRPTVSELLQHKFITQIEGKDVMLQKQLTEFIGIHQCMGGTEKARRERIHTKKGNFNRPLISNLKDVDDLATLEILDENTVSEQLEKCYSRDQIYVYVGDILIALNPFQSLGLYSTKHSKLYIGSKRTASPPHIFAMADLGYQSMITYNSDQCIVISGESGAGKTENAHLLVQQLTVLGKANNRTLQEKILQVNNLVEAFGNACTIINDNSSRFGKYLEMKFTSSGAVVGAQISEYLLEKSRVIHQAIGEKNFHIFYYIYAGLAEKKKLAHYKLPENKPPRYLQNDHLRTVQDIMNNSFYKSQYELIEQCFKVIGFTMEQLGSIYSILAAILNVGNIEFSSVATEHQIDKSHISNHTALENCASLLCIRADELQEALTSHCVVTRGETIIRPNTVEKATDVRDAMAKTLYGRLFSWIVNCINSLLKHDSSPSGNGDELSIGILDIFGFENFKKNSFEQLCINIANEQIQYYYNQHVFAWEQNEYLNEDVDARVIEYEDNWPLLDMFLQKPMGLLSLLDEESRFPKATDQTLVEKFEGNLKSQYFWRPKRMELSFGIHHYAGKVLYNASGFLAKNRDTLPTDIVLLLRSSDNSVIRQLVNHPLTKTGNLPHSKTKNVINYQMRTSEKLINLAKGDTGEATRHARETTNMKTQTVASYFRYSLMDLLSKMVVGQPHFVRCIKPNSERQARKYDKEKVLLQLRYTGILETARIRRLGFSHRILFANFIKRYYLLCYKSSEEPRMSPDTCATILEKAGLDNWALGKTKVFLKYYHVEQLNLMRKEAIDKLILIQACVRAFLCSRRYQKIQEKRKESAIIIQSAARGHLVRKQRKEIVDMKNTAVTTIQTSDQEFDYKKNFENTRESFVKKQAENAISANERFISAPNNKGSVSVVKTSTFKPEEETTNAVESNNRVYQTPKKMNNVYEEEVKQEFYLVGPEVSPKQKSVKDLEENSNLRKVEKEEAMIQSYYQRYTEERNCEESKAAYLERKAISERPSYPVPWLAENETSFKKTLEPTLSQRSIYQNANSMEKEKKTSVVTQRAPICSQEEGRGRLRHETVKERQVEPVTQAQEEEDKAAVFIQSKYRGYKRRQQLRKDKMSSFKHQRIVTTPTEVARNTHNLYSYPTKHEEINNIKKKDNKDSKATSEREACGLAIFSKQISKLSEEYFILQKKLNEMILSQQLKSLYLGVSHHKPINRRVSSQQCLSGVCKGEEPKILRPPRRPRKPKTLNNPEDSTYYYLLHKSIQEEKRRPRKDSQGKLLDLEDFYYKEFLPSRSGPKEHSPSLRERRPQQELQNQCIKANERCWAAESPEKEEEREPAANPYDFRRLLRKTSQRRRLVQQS

[19] = biological target: T19, NDR1 (Homo sapiens, UniProt Q15208); settings: NDR1, 100 nM; read-out: Percent Control
T19 construct: purchased DiscoveRx KINOMEscan (TRKA and CSF1R IC50 enzymes from Invitrogen)

[20] = biological target: T20, PIK3C2B (Homo sapiens, UniProt O00750); settings: 100 nM, read-out: Percent Control
T20 construct: purchased DiscoveRx KINOMEscan (TRKA and CSF1R IC50 enzymes from Invitrogen)
T20 sequence (O00750 whole entry): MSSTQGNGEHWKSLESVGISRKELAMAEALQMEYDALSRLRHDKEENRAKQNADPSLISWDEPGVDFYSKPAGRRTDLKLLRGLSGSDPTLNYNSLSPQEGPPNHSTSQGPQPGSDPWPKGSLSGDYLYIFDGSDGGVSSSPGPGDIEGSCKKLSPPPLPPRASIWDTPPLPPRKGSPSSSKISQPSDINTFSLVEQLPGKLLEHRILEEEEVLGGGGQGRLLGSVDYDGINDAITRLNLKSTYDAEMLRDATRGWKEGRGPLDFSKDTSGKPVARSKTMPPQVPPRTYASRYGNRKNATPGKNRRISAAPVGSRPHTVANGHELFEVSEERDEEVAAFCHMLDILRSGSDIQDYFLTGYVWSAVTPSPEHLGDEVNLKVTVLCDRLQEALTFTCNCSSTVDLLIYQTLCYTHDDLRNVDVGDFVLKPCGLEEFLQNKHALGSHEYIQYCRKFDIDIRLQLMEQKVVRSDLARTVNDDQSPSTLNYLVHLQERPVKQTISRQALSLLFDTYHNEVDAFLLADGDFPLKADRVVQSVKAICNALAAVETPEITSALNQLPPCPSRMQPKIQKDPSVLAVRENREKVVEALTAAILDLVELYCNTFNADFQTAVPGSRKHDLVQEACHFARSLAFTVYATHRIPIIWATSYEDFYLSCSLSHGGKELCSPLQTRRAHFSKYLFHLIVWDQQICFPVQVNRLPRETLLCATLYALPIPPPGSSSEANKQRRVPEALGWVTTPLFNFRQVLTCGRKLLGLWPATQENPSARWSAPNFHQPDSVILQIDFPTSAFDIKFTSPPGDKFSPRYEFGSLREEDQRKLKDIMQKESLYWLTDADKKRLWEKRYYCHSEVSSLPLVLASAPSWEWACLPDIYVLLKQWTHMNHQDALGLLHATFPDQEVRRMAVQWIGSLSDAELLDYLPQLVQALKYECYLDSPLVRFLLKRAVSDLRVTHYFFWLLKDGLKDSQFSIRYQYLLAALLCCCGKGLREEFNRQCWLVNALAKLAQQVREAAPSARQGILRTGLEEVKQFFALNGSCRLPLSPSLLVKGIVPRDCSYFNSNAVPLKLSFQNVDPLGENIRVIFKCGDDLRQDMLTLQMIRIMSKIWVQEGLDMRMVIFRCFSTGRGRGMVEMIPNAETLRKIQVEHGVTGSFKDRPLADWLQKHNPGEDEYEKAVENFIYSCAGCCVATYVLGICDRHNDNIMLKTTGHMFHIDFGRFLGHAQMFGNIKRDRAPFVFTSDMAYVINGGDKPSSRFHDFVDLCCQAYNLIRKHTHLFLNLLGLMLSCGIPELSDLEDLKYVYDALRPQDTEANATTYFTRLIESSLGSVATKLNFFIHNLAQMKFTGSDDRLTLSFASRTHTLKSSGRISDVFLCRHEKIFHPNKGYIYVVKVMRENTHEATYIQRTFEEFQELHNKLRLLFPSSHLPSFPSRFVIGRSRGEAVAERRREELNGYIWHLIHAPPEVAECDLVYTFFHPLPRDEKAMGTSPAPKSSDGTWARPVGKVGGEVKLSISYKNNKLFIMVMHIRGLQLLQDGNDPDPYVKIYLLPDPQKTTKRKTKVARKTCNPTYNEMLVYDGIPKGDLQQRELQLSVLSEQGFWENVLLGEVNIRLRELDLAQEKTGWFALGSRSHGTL

[21] = biological target: T21, PIM1 (Homo sapiens, UniProt P11309); settings: PIM1, 100 nM; read-out: Percent Control
T21 construct: purchased DiscoveRx KINOMEscan (TRKA and CSF1R IC50 enzymes from Invitrogen)
T21 sequence (P11309 whole entry): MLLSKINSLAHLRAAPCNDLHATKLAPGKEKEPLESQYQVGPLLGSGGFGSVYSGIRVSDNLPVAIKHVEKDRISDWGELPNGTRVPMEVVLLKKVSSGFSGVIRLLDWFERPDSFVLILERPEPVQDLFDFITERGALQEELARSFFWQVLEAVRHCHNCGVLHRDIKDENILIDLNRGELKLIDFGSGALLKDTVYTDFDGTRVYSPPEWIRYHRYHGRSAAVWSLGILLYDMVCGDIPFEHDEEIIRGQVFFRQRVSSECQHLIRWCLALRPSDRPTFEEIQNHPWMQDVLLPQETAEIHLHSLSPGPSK

[22] = biological target: T22, ROCK2 (Homo sapiens, UniProt O75116); settings: ROCK2, 100 nM; read-out: Percent Control
T22 construct: purchased DiscoveRx KINOMEscan (TRKA and CSF1R IC50 enzymes from Invitrogen)

[23] = biological target: T23, RPS6KA4(Kin.Dom.2-C-terminal) (Homo sapiens, UniProt O75676); settings: 100 nM, read-out: Percent Control
T23 construct: RPS6KA4(Kin.Dom.2-C-terminal); purchased DiscoveRx KINOMEscan (TRKA and CSF1R IC50 enzymes from Invitrogen)

[24] = biological target: T24, S6K1 (Homo sapiens, UniProt P23443); settings: S6K1, 100 nM; read-out: Percent Control
T24 construct: purchased DiscoveRx KINOMEscan (TRKA and CSF1R IC50 enzymes from Invitrogen)

[25] = biological target: T25, SLK (Homo sapiens, UniProt Q9H2G2); settings: 100 nM, read-out: Percent Control
T25 construct: purchased DiscoveRx KINOMEscan (TRKA and CSF1R IC50 enzymes from Invitrogen)

[26] = biological target: T26, TSSK1B (Homo sapiens, UniProt Q9BXA7); settings: 100 nM, read-out: Percent Control
T26 construct: purchased DiscoverX (outsourced KINOMEscan)

With `CC(C)(C)c1cc(NC(=O)Cc2ccc(-n3cnc4cc(-c5ccc(S(C)(=O)=O)cc5)ccc43)cc2)no1` [NPA101.3] as the compound, how does the remaining binding at 0.1 µM [1] read?
Its remaining binding at 0.1 µM is 100%.

What about the remaining binding at 0.1 µM [2] of the same compound?
Its remaining binding at 0.1 µM is 49%.

And the remaining binding at 0.1 µM [3]?
The remaining binding at 0.1 µM was 62%.

And the remaining binding at 0.1 µM [4]?
The remaining binding at 0.1 µM was 94%.

And the remaining binding at 0.1 µM [5]?
The remaining binding at 0.1 µM was 100%.

And the remaining binding at 0.1 µM [6]?
Its remaining binding at 0.1 µM is 98%.

What about the remaining binding at 0.1 µM [7] of the same compound?
Its remaining binding at 0.1 µM is 100%.

What about the remaining binding at 0.1 µM [8] of the same compound?
The remaining binding at 0.1 µM was 79%.

And the remaining binding at 0.1 µM [9]?
Its remaining binding at 0.1 µM is 99%.

And the remaining binding at 0.1 µM [10]?
Its remaining binding at 0.1 µM is 75%.

What about the remaining binding at 0.1 µM [11] of the same compound?
Its remaining binding at 0.1 µM is 100%.

What about the remaining binding at 0.1 µM [12] of the same compound?
Its remaining binding at 0.1 µM is 100%.

And the remaining binding at 0.1 µM [13]?
Its remaining binding at 0.1 µM is 100%.

What about the remaining binding at 0.1 µM [14] of the same compound?
Its remaining binding at 0.1 µM is 78%.

What about the remaining binding at 0.1 µM [15] of the same compound?
Its remaining binding at 0.1 µM is 81%.

And the remaining binding at 0.1 µM [16]?
Its remaining binding at 0.1 µM is 100%.

And the remaining binding at 0.1 µM [17]?
The remaining binding at 0.1 µM was 23%.

What about the remaining binding at 0.1 µM [18] of the same compound?
The remaining binding at 0.1 µM was 77%.

And the remaining binding at 0.1 µM [19]?
The remaining binding at 0.1 µM was 86%.

And the remaining binding at 0.1 µM [20]?
Its remaining binding at 0.1 µM is 100%.

What about the remaining binding at 0.1 µM [21] of the same compound?
Its remaining binding at 0.1 µM is 94%.

What about the remaining binding at 0.1 µM [22] of the same compound?
Its remaining binding at 0.1 µM is 100%.

And the remaining binding at 0.1 µM [23]?
The remaining binding at 0.1 µM was 100%.

What about the remaining binding at 0.1 µM [24] of the same compound?
The remaining binding at 0.1 µM was 100%.

And the remaining binding at 0.1 µM [25]?
Its remaining binding at 0.1 µM is 35%.

What about the remaining binding at 0.1 µM [26] of the same compound?
The remaining binding at 0.1 µM was 96%.
